{
  "source": "patent US5283247A",
  "about": "“Anticonvulsant substituted quinazolones” (Research Corporation Technologies, Inc., priority 1992, dated 1994)",
  "key": {"[1]": {"conditions": "cited from earlier work"}, "[2]": {"conditions": "reference 3; cited from earlier work"}, "[3]": {"test": "pentylenetetrazol (90 mg/kg sc) induced seizures in mice, percent protection", "format": "in vivo, male mice (Swiss-Webster)", "conditions": "for Percent Protection: 100 mg/kg ip, pentylenetetrazol 90 mg/kg sc one hour later, observed 60 minutes (Table 3); for Percent Protection / protection against pentylenetetrazol seizures: mice; for Percent Protection against pentylenetetrazol (dose response): pentylenetetrazol 90 mg/kg s.c. given 1 hour after; for Percent Protection against pentylenetetrazol (time response): pentylenetetrazol 90 mg/kg s.c.; for protection against pentylenetetrazol seizures: Example 6, 100 mg/kg ip", "protocol": "(§1) The mice were divided in groups of 10, keeping the group weights equal as far as possible. The quinazolones shown in Table 2 as well as methaqualone were injected ip (100 mg/kg) in a 5% aqueous suspension of gum acacia to one group of 10 animals. One hour after the administration of quinazolones, the mice were injected with pentylenetetrazol (90 mg/kg) sc under the loose skin of the back. […] The mice were then observed for the following 60 minutes for the occurrence of seizures. One episode of clonic spasm which persisted for a minimum period of 5 seconds was considered a threshold convulsion. Transient intermittent jerks or tremulousness were not taken into account. Animals devoid of even a threshold convulsion during the period of 60 minutes were considered protected. […] Mortality was recorded 24 hours after the pentylenetetrazol injection. After the injection of test compounds, behavioral observations were also made. […] 2 and compound no.\n(§2) Dose response and time response studies were performed with compound no. 2 by injecting it into a group of 10 male Swiss-Webster mice. In addition, a group of 10 male ICR mice were injected with different dosages of compound no. 2 to determine the approximate LD50."}, "[4]": {"test": "24 hour mortality / toxicity in mice after test compound and pentylenetetrazol", "format": "in vivo, male mice (Swiss-Webster)", "conditions": "for 24 Hour Mortality: 100 mg/kg ip, 24 hours after pentylenetetrazol injection, groups of 10; for toxicity at the effective dosage: Example 6, 100 mg/kg ip", "protocol": "as §1"}, "[5]": {"test": "behavioral observations / gross CNS effects in mice", "format": "in vivo, male mice (Swiss-Webster)", "conditions": "100 mg/kg ip, after injection of test compounds", "protocol": "The mice were divided in groups of 10, keeping the group weights equal as far as possible. The quinazolones shown in Table 2 as well as methaqualone were injected ip (100 mg/kg) in a 5% aqueous suspension of gum acacia to one group of 10 animals. One hour after the administration of quinazolones, the mice were injected with pentylenetetrazol (90 mg/kg) sc under the loose skin of the back. […] The mice were then observed for the following 60 minutes for the occurrence of seizures. One episode of clonic spasm which persisted for a minimum period of 5 seconds was considered a threshold convulsion. Transient intermittent jerks or tremulousness were not taken into account. Animals devoid of even a threshold convulsion during the period of 60 minutes were considered protected. […] Mortality was recorded 24 hours after the pentylenetetrazol injection. After the injection of test compounds, behavioral observations were also made."}, "[6]": {"test": "approximate LD50 in mice", "conditions": "mouse, in vivo, ip; male ICR mice, observed 24 hours", "protocol": "as §2\nApproximate LD50 was determined in male ICR mice."}, "[7]": {"test": "maximal electric shock seizures (MES) in rats", "format": "in vivo", "conditions": "50 mg/kg orally", "protocol": "(§3) Compound No. 2 was also tested in rats. Four rats were treated with compound no. 2 at a dosage of 50 mg/kg orally. Anticonvulsant effects of compound no. […] The toxic symptoms were also observed. It can be seen from this table that compound no.\n(§4) Maximal electroshock seizures were elicited with a 60 cycle alternating current of 50mA intensity (5-7 times that necessary to elicit minimal electroshock seizures) delivered for 0.2 seconds via corneal electrodes. A drop of 0.9% saline was instilled in the eye prior to application of the electrodes in order to […]. Abolition of the hind limb tonic extension component of the seizure was defined as protection."}, "[8]": {"test": "pentylenetetrazol-induced seizure in rats", "format": "in vivo", "conditions": "50 mg/kg orally", "protocol": "as §3"}, "[9]": {"test": "therapeutic index compared with methaqualone", "conditions": "conclusion from Examples 6, 7 and 8"}, "[10]": {"test": "toxic symptoms in rats", "format": "in vivo", "conditions": "50 mg/kg orally", "protocol": "as §3"}, "[11]": {"test": "Maximal Electric Shock (MES) seizure in mice", "format": "in vivo", "conditions": "30 mg/kg ip in mice", "protocol": "In addition, compound no. 2 was also tested against Maximal Electric Shock (MES) seizure. Compound no.\nas §4"}},
  "data": [
    {"smiles": "Cc1nc2ccccc2c(=O)n1-c1ccccc1C(F)(F)F", "note": "[2-methyl-3-(2-trifluoromethylphenyl)-4-quinazolone]", "values": [
      {"measurement": "sedative effect compared with methaqualone", "setting": "[1]; reference 4", "value": "better sedative effect"},
      {"measurement": "toxicity compared with methaqualone", "setting": "[1]; reference 4", "value": "lower toxicity"}
    ]},
    {"smiles": "Cc1ccccc1-n1c(C)nc2ccccc2c1=O", "note": "[Compound 1, 2-methyl-3-o-tolyl-4-quinazolone]", "values": [
      {"measurement": "abuse potential", "setting": "[1]; in vivo", "value": "high abuse potential"},
      {"measurement": "metabolism in the body", "setting": "[2]", "value": "metabolized in the body to the N^1 -oxide of the compound"},
      {"measurement": "Percent Protection", "setting": "[3]", "value": 100, "unit": "%"},
      {"measurement": "24 Hour Mortality", "setting": "[4]", "value": 0}
    ]},
    {"smiles": "Cc1cccnc1-n1c(C)nc2ccccc2c1=O", "note": "[Compound 2, 2-Methyl-3-(3-methyl-2-pyridyl)-4-quinazolone]", "values": [
      {"measurement": "Behavioral Observations", "setting": "[5]", "value": "mild sedation"},
      {"measurement": "LD50 at 24 h", "setting": "[6]", "value": "~1000", "unit": "mg/kg"},
      {"measurement": "Percent Protection against pentylenetetrazol (dose response)", "setting": "[3]; 40 mg/kg i.p.", "value": 20, "unit": "%"},
      {"measurement": "Percent Protection against pentylenetetrazol (dose response)", "setting": "[3]; 60 mg/kg i.p.", "value": 80, "unit": "%"},
      {"measurement": "Percent Protection against pentylenetetrazol (dose response)", "setting": "[3]; 80 mg/kg i.p.", "value": 90, "unit": "%"},
      {"measurement": "Percent Protection against pentylenetetrazol (dose response)", "setting": "[3]; 100 mg/kg i.p.", "value": 100, "unit": "%"},
      {"measurement": "Percent Protection", "setting": "[3]", "value": 100, "unit": "%"},
      {"measurement": "Percent Protection against pentylenetetrazol (time response)", "setting": "[3]; 1 hr after injection, 100 mg/kg i.p.", "value": 100, "unit": "%"},
      {"measurement": "Percent Protection against pentylenetetrazol (time response)", "setting": "[3]; 2 hr after injection, 100 mg/kg i.p.", "value": 60, "unit": "%"},
      {"measurement": "Percent Protection against pentylenetetrazol (time response)", "setting": "[3]; 3 hr after injection, 100 mg/kg i.p.", "value": 0, "unit": "%"},
      {"measurement": "Percent Protection against pentylenetetrazol (time response)", "setting": "[3]; 4 hr after injection, 100 mg/kg i.p.", "value": 0, "unit": "%"},
      {"measurement": "protection against pentylenetetrazol seizures", "setting": "[3]", "value": 100, "unit": "%"},
      {"measurement": "Percent protection against MES", "setting": "[7]; 0.25 Hr.", "value": 75, "unit": "%"},
      {"measurement": "Percent protection against MES", "setting": "[7]; 0.5 Hr.", "value": 50, "unit": "%"},
      {"measurement": "Percent protection against MES", "setting": "[7]; 1 Hr.", "value": 75, "unit": "%"},
      {"measurement": "Percent protection against MES", "setting": "[7]; 2 Hr.", "value": 50, "unit": "%"},
      {"measurement": "Percent protection against MES", "setting": "[7]; 4 Hr.", "value": 25, "unit": "%"},
      {"measurement": "protection against MES", "setting": "[7]; all time periods, Example 8", "value": "protected against both MES and pentylenetetrazol-induced seizure at all time periods"},
      {"measurement": "Percent protection against pentylenetetrazol", "setting": "[8]; 0.25 Hr., three rats", "value": 33.3, "unit": "%"},
      {"measurement": "Percent protection against pentylenetetrazol", "setting": "[8]; 0.5 Hr., four rats", "value": 75, "unit": "%"},
      {"measurement": "Percent protection against pentylenetetrazol", "setting": "[8]; 1 Hr., four rats", "value": 25, "unit": "%"},
      {"measurement": "Percent protection against pentylenetetrazol", "setting": "[8]; 4 Hr., four rats", "value": 25, "unit": "%"},
      {"measurement": "protection against pentylenetetrazol-induced seizure", "setting": "[8]; all time periods, Example 8", "value": "protected against both MES and pentylenetetrazol-induced seizure at all time periods"},
      {"measurement": "therapeutic index versus methaqualone", "setting": "[9]", "value": "higher therapeutic indices than methaqualone"},
      {"measurement": "24 Hour Mortality", "setting": "[4]", "value": 0},
      {"measurement": "toxicity at the effective dosage", "setting": "[4]", "value": "did not exhibit any toxicity"},
      {"measurement": "Toxicity in percent rats", "setting": "[10]; 0.25 Hr.", "value": 0, "unit": "%"},
      {"measurement": "Toxicity in percent rats", "setting": "[10]; 0.5 Hr.", "value": 0, "unit": "%"},
      {"measurement": "Toxicity in percent rats", "setting": "[10]; 1 Hr.", "value": 0, "unit": "%"},
      {"measurement": "Toxicity in percent rats", "setting": "[10]; 2 Hr.", "value": 0, "unit": "%"},
      {"measurement": "Toxicity in percent rats", "setting": "[10]; 4 Hr.", "value": 0, "unit": "%"},
      {"measurement": "toxic symptoms", "setting": "[10]; rats, all time periods, Example 8", "value": "without exhibiting any toxic symptoms"},
      {"measurement": "protection against MES", "setting": "[11]", "value": 100, "unit": "%"}
    ]},
    {"smiles": "Cc1ccccc1-n1c(C)nc2cc(N)ccc2c1=O", "note": "[Compound 14, 2-Methyl-3-o-tolyl-7-amino-4-quinazolone]", "values": [
      {"measurement": "Behavioral Observations", "setting": "[5]", "value": "none"},
      {"measurement": "Percent Protection", "setting": "[3]", "value": 100, "unit": "%"},
      {"measurement": "protection against pentylenetetrazol seizures", "setting": "[3]", "value": 100, "unit": "%"},
      {"measurement": "therapeutic index versus methaqualone", "setting": "[9]", "value": "higher therapeutic indices than methaqualone"},
      {"measurement": "24 Hour Mortality", "setting": "[4]", "value": 0},
      {"measurement": "toxicity at the effective dosage", "setting": "[4]", "value": "did not exhibit any toxicity"}
    ]}
  ]
}
